Consider 49 compounds from PubChem BioAssay AID179 (DTP/NCI, 2004).

Activity calls are given as the source filed them.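 How the source made its calls: active means compounds giving half or more protection of infected cells from virus-caused growth loss, again on retest; inactive means the rest.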 Where a SMILES comes first, the peptide text is derived from it. [ ]: non-standard residue; d: D form. The star is where a group is joined. Phe(4-NO2) = N[CH](Cc1ccc([N+](=O)[O-])cc1)C(=O)O; Boc = CC(C)(C)OC(=O)*; OtBu = CC(C)(C)O*

The assay has as its system CEM cells HIV-1 protection, formazan growth assay. The assay is described as follows: NCI AIDS Antiviral Assay. The conditions noted are these: for IC50: measured here: growth of uninfected CEM cells. The essentials: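 Protection of CEM cells against HIV-1 was scored from cell growth (soluble formazan) across five concentrations, with parallel uninfected cells. Lack of protection may reflect toxicity.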

On to `Cc1cc(C)nc(NS(=O)(=O)c2ccc(NNc3c4ccccc4nc4c(C(=O)Nc5ccc(S(=O)(=O)Nc6ncccn6)cc5)cccc34)cc2)n1`, for which the EC50 (in general, the concentration giving half of the maximal effect) is more than 200 µM and the IC50 (in general, the midpoint of a concentration-inhibition curve) came out at 29.5 µM.

With `COC(=O)C(=O)C(C(=O)C(=O)Nc1ccc(C)cc1)c1nc2ccc(C(=O)c3ccccc3)cc2[nH]c1=O` (stereo not given), the EC50 was more than 26.3 µM and the IC50 was more than 26.3 µM.

For the compound `Cc1[nH]c(=O)nc2nc3cc(Cl)cc(Cl)c3c(NC(C)(CO)CO)c12`, the EC50 is more than 200 µM and the IC50 was more than 200 µM.

For the compound `CCOC(=O)/C(=C\N1C(=O)/C(=C\C(C)=C\c2ccccc2)SC1=S)C(=O)c1ccccc1`, the EC50 is 11 µM and the IC50 is 13.5 µM.

As to `Fc1ccc(-c2sc(-c3cccs3)cc2Cc2cccs2)cc1`, the outcome was inactive.

Consider `CC1Cc2c(N)nc(NN)nc2NC1=O` (stereo not given), for which the outcome was inactive.

In the case of `O=c1oc(-c2ccccc2)cn1-c1ccccc1`, the outcome was inactive.

On to `COc1ccc(Cl)cc1C(=O)c1cc(Cl)cc(S(=O)(=O)N(C)C)c1OC`, for which the EC50 was more than 9.12 µM and the IC50 amounted to 8.13 µM.

Regarding `COC(=O)C1(C(=O)OC)CC(=O)c2cc3c(cc2-c2c(cc(OC)c(OC)c2OC)C1)OCO3`, the EC50 is more than 28.8 µM and the IC50 is more than 28.8 µM.

With `C=CC[C@]12C[C@@H](C(=O)OC)N(C(=O)OC)[C@H]1N(S(=O)(=O)c1ccccc1)c1ccccc12`, the EC50 was more than 200 µM and the IC50 was 74.1 µM.

Take `C[C@H]1CC[C@@H]2[C@@H](C)[C@H]3[C@H](C[C@H]4[C@@H]5CC=C6C[C@@H](O)CC[C@]6(C)[C@H]5C[C@H](O)[C@]34C)N2C1`: the outcome was inactive.

Regarding `O=C(OCc1ccccc1)N1N=NC2C3CC(OCc4ccccc4)(OCc4ccccc4)C(O3)C21` (stereo not given), the EC50 is more than 10.7 µM and the IC50 was more than 10.7 µM.

With `O=C(CNc1ccccc1[N+](=O)[O-])Nn1c(-c2ccccc2)nc2ccccc2c1=O`, the EC50 was more than 200 µM and the IC50 was 11.7 µM.

Consider `CC(=O)NNC(=S)N/C=C(/C(=O)c1ccccc1)c1ccccc1`, for which the EC50 is more than 479 µM and the IC50 was determined as 302 µM.

Regarding `C=C(C)C1CCC2(C(=O)O)CCC3(C)C(CCC4C5(C)CCC(O)C(C)(C)C5CCC43C)C12` (stereo not given), the EC50 is more than 200 µM and the IC50 amounted to 66.1 µM.

On to `COc1ccccc1CNCCCCCCNCCSSCCNCCCCCCNCc1ccccc1OC`, for which the EC50 was more than 200 µM and the IC50 is 57.5 µM.

In the case of `NNc1c(Cl)c(=O)n(-c2ccccc2)[nH]c1=O`, the EC50 was more than 200 µM and the IC50 was more than 200 µM.

Consider `CC1CC(C)(C)S(=O)(=O)O1` (stereo not given), for which the EC50 was more than 200 µM and the IC50 was more than 200 µM.

Turning to `O=C1CCC2(CC1CC(Sc1ccccc1)Sc1ccccc1)OCCO2` (stereo not given), the EC50 was more than 200 µM and the IC50 is 41.7 µM.

With `COc1cccc(N2C(=O)C3c4[nH]c5ccc(C)cc5c4C4CCC(C(C)(C)C)CC4C3C2=O)c1` (stereo not given), the EC50 is more than 200 µM and the IC50 came to 9.55 µM.

Take `CC(C)(C)COC(=O)NC1CCC2CCCCC2C1` (stereo not given): the EC50 was more than 200 µM and the IC50 is more than 200 µM.

In the case of `Cc1ccc(NC(=O)c2cc(S(=O)(=O)N3CCNNC3=O)c(S)cc2Cl)cc1`, the EC50 is 30.2 µM and the IC50 was determined as 195 µM.

In the case of `Nc1[nH]c(=S)nc2snnc12`, the EC50 is more than 200 µM and the IC50 is more than 200 µM.

Take `CC(=O)/C=C/c1ccc(C2CC(C)=Nc3c(ccc4c3C(=O)c3ccccc3C4=O)N2)cc1` (stereo not given): the EC50 is more than 6.31 µM and the half-inhibitory concentration (IC50) is more than 6.31 µM.

On to `CCOC(=O)N1CCc2cc(OC)c(OC)c3c2C1CC3=O` (stereo not given), for which the result was inactive.

Regarding `CCCCCCCCCCCCCCCCCCSCC(COP(=O)(O)OP(=O)(O)O)OC(=O)CCCCCCCCCCCCCCC` (stereo not given), the EC50 was more than 0.891 µM and the IC50 is more than 0.891 µM.

Regarding `COc1ccc(N=Nc2c(-c3ccccc3)nn(C(=O)CC(=O)Nc3ccc(OC)cc3)c2-c2ccccc2)cc1`, the EC50 is more than 25.1 µM and the IC50 was more than 25.1 µM.

As to `Cc1ccc2nc(-c3ccccc3Cl)[nH]c2c1`, the EC50 is 14.8 µM and the IC50 came out at 29.5 µM.

Consider `O=C(OCc1ccccc1)[C@H]1O[C@@H]1C(=O)OCc1ccccc1`, for which the EC50 was more than 200 µM and the half-maximal inhibitory concentration (IC50) was found to be 25.7 µM.

With `C=CCNC(=S)N/C=C(/C(=O)c1ccccc1)c1ccccc1`, the EC50 is more than 200 µM and the IC50 is 182 µM.

Turning to `Cc1ccccc1N=Nc1c(-c2ccccc2)nn(C(=O)CC(=O)Nc2cccc(Cl)c2)c1-c1ccccc1`, the EC50 is more than 25.1 µM and the IC50 was more than 25.1 µM.

For the compound `Brc1cccc[n+]1Cc1cccc(C[n+]2ccccc2Br)c1`, the EC50 is 0.0631 µM and the IC50 was found to be 141 µM.

Turning to `Cc1cc(C)c(-c2noc(-c3ccc(Cl)cc3)c2C2=NCCN2)c(C)c1`, the result was inactive.

For the compound `COC1/C=C/OC2(C)Oc3c(C)c(O)c4c(O)c(c(/C=N/Nc5ncccn5)c(O)c4c3C2=O)NC(=O)C(C)=C/C=C/C(C)C(O)C(C)C(O)C(C)C(OC(C)=O)C1C` (stereo not given), the EC50 was more than 151 µM and the IC50 turned out to be 9.12 µM.

With `O=C1c2ccccc2C(=O)N1CCCC[P+](c1ccccc1)(c1ccccc1)c1ccccc1`, the EC50 is more than 200 µM and the IC50 stood at 15.5 µM.

With `O=C(CCl)Nc1cccc2ccccc12`, the EC50 was more than 200 µM and the IC50 was 3.24 µM.

Take `CN(N=O)C(=O)N[C@@H](C=O)[C@@H](O)[C@H](O)[C@H](O)CO`: the EC50 was more than 933 µM and the IC50 was more than 933 µM.

On to `CCOC(=O)c1s/c(=N\Nc2nc3ccccc3cc2C2OCCO2)n(Cc2ccccc2)c1C`, for which the EC50 was more than 5.5 µM and the half-inhibitory concentration (IC50) is more than 5.5 µM.

On to `CN1C(=O)CC(c2cccc(C3CC(=O)N(C)C3=O)n2)C1=O` (stereo not given), for which the EC50 was more than 832 µM and the IC50 was more than 832 µM.

For `O=c1[nH]nc(Cc2ccccc2)n1C1CC1`, the EC50 was more than 200 µM and the IC50 is more than 200 µM.

In the case of `Nc1nc(N)c(CCCc2ccccc2)c(N)n1`, the outcome was inactive.

With `N/C(=C\c1ccc(/C=C(\NC(=O)c2ccccc2)c2nc3c([nH]2)C(=O)c2ccccc2C3=O)cc1)c1nc2c([nH]1)C(=O)c1ccccc1C2=O`, the outcome was inactive.

In the case of `COc1ccc([C@H]2[C@H]3COC(=O)[C@H]3C(C#N)=C3Sc4ccccc4N32)cc1`, the EC50 is more than 200 µM and the IC50 turned out to be 12.9 µM.

With `NC(=O)[N+](=CC(=S)Nc1ccccc1Cl)C(N)=O`, the EC50 was more than 200 µM and the IC50 was more than 200 µM.

Consider `O=S(=O)(SS(=O)(=O)c1ccccc1)c1ccccc1`, for which the EC50 was more than 115 µM and the IC50 is more than 115 µM.

`Cc1ncc2c(c1O)COC2=O`: the EC50 is more than 1510 µM and the IC50 is more than 1510 µM.

For `COC(=O)C(Cc1ccc([N+](=O)[O-])cc1)NC(=O)C(CC(=O)OC(C)(C)C)NC(=O)OC(C)(C)C` (stereo not given) (Boc-Asp(OtBu)-[Phe(4-NO2)]-OMe; configuration not given here), the EC50 was more than 200 µM and the IC50 was 93.3 µM.

For `Cc1ccccc1NC(=O)Cc1csc(N/N=C2\NC(=O)/C(=C/c3cccc([N+](=O)[O-])c3)S2)n1`, the EC50 is more than 200 µM and the IC50 was more than 100 µM.

On to `Cc1ccc2nc(-c3ccccc3)c(N=O)n2c1`, for which the EC50 was more than 200 µM and the concentration for half-maximal inhibition (IC50) amounted to 170 µM.
